Tested on: vasopressin V2
Assay: Vasopressin Antidiuretic (V2) Response in Conscious Rats with Free Access to Water Drinking Before But Not During the Experiment
Type: in vivo, rat (Sprague-Dawley)
Conditions: N=2
Source text: Vasopressin Antidiuretic (V2) Response in Conscious Rats with Free Access to Water Drinking Before But Not During the Experiment Male or female normotensive Sprague-Dawley rats (Charles River Laboratories, Inc., Kingston, N.Y.) of 400-450 g of body weight were supplied with Laboratory Rodent Feed #5001 (PMI Feeds, Inc., Richmond, Ind.) and water ad libitum. On the day of test, rats were placed individually into metabolic cages equipped with stainless steel screens (to separate the feces from the urine) and funnels for collection of urine. Compounds, vehicle, or reference agent was given at various oral doses. During the test, rats were provided with no water or food. After dosing, urine was collected in graduated cylinders for four hours. Urine volume was measured. Urinary osmolality was determined using a Fiske One-Ten Osmometer (Fiske Associates, Norwood, Mass. 02062). An aliquot of each urine collection was analyzed for Na^+,K^+ and Cl^- using ion specific electrodes a in Beckman E3 (Electrolyte 3) analyzer. The vehicle used for testing compounds was 20% dimethylsulfoxide (DMSO) in 2.5% preboiled starch. Compounds were dissolved in DMSO and then diluted in 2.5% corn starch (final concentration of DMSO was 20%). All rats were orally dosed with this mixture at […], by gavage.

| SMILES | Osmolality (oral 10 mg/kg) [MOsm/kg] | Urine Volume (oral 10 mg/kg) [ml/4 hrs] | Osmolality (oral 1 mg/kg) [MOsm/kg] | Urine Volume (oral 1 mg/kg) [ml/4 hrs] | Osmolality (oral 3 mg/kg) [MOsm/kg] | Urine Volume (oral 3 mg/kg) [ml/4 hrs] |
| --- | --- | --- | --- | --- | --- | --- |
| O=C(Nc1ccc(C(=O)N2Cc3ccccc3Oc3ccccc32)c(Cl)c1)c1ccccc1-c1ccccc1 [Example 47, N-[4-(Dibenz[b,f][1,4]oxazepin-10(11H)-ylcarbonyl)-3-chlorophenyl][1,1'biphenyl]-2-carboxamide] | 394 | 22.0 | – | – | – | – |
| O=C(Nc1ccc(C(=O)N2Cc3cccnc3Oc3ccccc32)cn1)c1ccccc1-c1ccccc1 [Example 66, N-[5-(Pyrido[2,3-b][1,5]benzoxazepin-6(5H)-ylcarbonyl)-2-pyridinyl][1,1'biphenyl]-2-carboxamide] | 442 | 17.0 | – | – | – | – |
| O=C(Nc1ccc(C(=O)N2Cc3cccnc3Oc3ccccc32)c(Cl)c1)c1ccccc1-c1ccccc1 [Example 67, N-[4-(Pyrido[2,3-b][1,5]benzoxazepin-6(5H)-ylcarbonyl)-3-chlorophenyl][1,1'-biphenyl]-2-carboxamide] | 402 | 21.5 | – | – | – | – |
| O=C(Nc1ccc(C(=O)N2Cc3cccnc3Nc3ccccc32)cc1)c1ccccc1-c1ccccc1 [Example 133, N-[4-(6,11-Dihydropyrido[2,3-b][1,5]benzodiazepin-6(5H)-ylcarbonyl)-phenyl][1.1'-biphenyl]-2-carboxamide] | 234 | 27.5 | – | – | – | – |
| O=C(Nc1ccc(C(=O)N2Cc3cccnc3Nc3ccccc32)c(Cl)c1)c1ccccc1-c1ccccc1 [Example 134, N-[4-(6,11-Dihydropyrido[2,3-b][1,5]benzodiazepin-6(5H)-ylcarbonyl)-3-chlorophenyl][1,1'-biphenyl]-2-carboxamide] | 333 | 40.5 | 596 | 18.2 | 396 | 28 |
| Cl.O=C(Nc1ccc(C(=O)N2Cc3cccnc3Nc3ccccc32)cc1)c1ccccc1-c1ccccc1 [Example 135, N-[4-(6,11-Dihydropyrido[2,3-b][1,5]benzodiazepin-6(5H)-ylcarbonyl)-phenyl][1,1'-biphenyl]-2-carboxamide, hydrochloride] | 284 | 39.5 | 526 | 19.5 | 391 | 26.8 |
| O=C(Nc1ccc(C(=O)N2Cc3cccnc3Nc3ccccc32)cn1)c1ccccc1-c1ccccc1 [Example 176, N-[5-(6,11-Dihydropyrido[2,3-b][1,5]benzodiazepin-6(5H)-ylcarbonyl)-2-pyridinyl][1,1'-biphenyl]-2-carboxamide] | 567 | 12.8 | – | – | – | – |
| O=C(Nc1ccc(C(=O)N2Cc3ccccc3Nc3ccccc32)c(Cl)c1)c1ccccc1-c1ccccc1 [Example 218, N-[4-[(5,11-Dihydro-10H-dibenz[b,e][1,4]diazepin-10-yl)carbonyl]-3-chlorophenyl][1,1'-biphenyl]-2-carboxamide] | 222 | 34 | – | – | – | – |
| O=C(Nc1ccc(C(=O)N2Cc3ccccc3Nc3ccccc32)cn1)c1ccccc1-c1ccccc1 [Example 257, N-[5-[(5,11-Dihydro-10H-dibenz[b,e][1,4]diazepin-10-yl)carbonyl]-2-pyridinyl][1,1'-biphenyl]-2-carboxamide] | 317 | 22.5 | – | – | – | – |
| O=C(Nc1ccc(C(=O)N2Cc3ccccc3Cc3ccccc32)cc1)c1ccccc1-c1ccccc1 [Example 301, N-[4-[(6,11-Dihydro-5H-dibenz[b,e]azepin-5-yl)carbonyl]-phenyl][1,1'-biphenyl]-2-carboxamide] | 363 | 41.5 | – | – | – | – |
| O=C(Nc1ccc(C(=O)N2Cc3ccccc3Cc3ccccc32)c(Cl)c1)c1ccccc1-c1ccccc1 [Example 302, N-[4-[(6,11-Dihydro-5H-dibenz[b,e]azepin-5-yl)carbonyl]-3-chlorophenyl][1,1'-biphenyl]-2-carboxamide] | 356 | 40 | – | – | – | – |
| Cc1ccc(F)cc1C(=O)Nc1ccc(C(=O)N2Cc3ccccc3Nc3ncccc32)cn1 [Example 352, N-[5-[(6,11-Dihydro-5H-pyrido[2,3-b][1,4]benzodiazepin-5-yl)carbonyl]-2-pyridinyl]-5-fluoro-2-methylbenzamide] | 779 | 9.3 | – | – | – | – |
| O=C(Nc1ccc(C(=O)N2CCc3cn[nH]c3-c3ccccc32)cc1)c1ccccc1-c1ccccc1 [Example 396] | 238 | 21.8 | – | – | – | – |
| O=C(Nc1ccc(C(=O)N2CCc3cn[nH]c3-c3ccccc32)c(Cl)c1)c1ccccc1-c1ccccc1 [Example 397] | 288 | 29.8 | – | – | – | – |
| O=C(Nc1ccc(C(=O)N2CCc3cn[nH]c3-c3ccccc32)cn1)c1ccccc1-c1ccccc1 [Example 398, N-[5-[(4,5-Dihydropyrazolo[4,3-d][1]benzazepin-6(1H)-yl)carbonyl]-2-pyridinyl][1,1'-biphenyl]-2-carboxamide] | 316 | 20.5 | – | – | – | – |
| Cc1ccc(F)cc1C(=O)Nc1ccc(C(=O)N2CCc3cn[nH]c3-c3ccccc32)cn1 [Example 399, N-[5-[(4,5-Dihydropyrazolo[4,3-d][1]benzazepin-6(1H)-yl)carbonyl]-2-pyridinyl]-5-fluoro-2-methylbenzamide] | 404 | 17.0 | – | – | – | – |
| Cc1ccc(F)cc1C(=O)Nc1ccc(C(=O)N2Cc3cscc3Nc3ccccc32)cn1 [Example 400] | 270 | 24.8 | – | – | – | – |
| O=C(c1ccc(-c2cccs2)cc1)N1Cc2ccccc2Nc2ccccc21 [Example 404, 5,11-Dihydro-10-[4-(2-thienyl)benzoyl]-10H-dibenz[b,e][1,4]diazepine] | 909 | 6 | – | – | – | – |

Reference: patent publication US5849735A, “Tricyclic benzazepine vasopressin antagonists” (American Cyanamid Company, priority 1995, dated 1998)
